Measurements reported in ChEMBL document CHEMBL3046389, “Synthesis and biological evaluation of novel hydroquinone dimethyl ethers as potential anticancer and antimicrobial agents” (2013).

Legend:
Type in all cases: functional
[1] = test system: OVCAR-8; assay: Growth inhibition of Homo sapiens (human) OVCAR8 cells at 10 uM after 48 hr by SRB assay; settings: OVCAR-8, 48 h, read-out: GI
[2] = test system: UACC-257; assay: Anticancer activity against Homo sapiens (human) UACC257 cells after 48 hr by SRB assay; settings: UACC-257, 48 h
[3] = test system: UO-31; assay: Anticancer activity against Homo sapiens (human) UO31 cells after 48 hr by SRB assay; settings: UO-31, 48 h
[4] = test system: TK-10; assay: Growth inhibition of Homo sapiens (human) TK10 cells at 10 uM after 48 hr by SRB assay; settings: TK-10, 48 h, read-out: GI
[5] = test system: CAKI-1; assay: Anticancer activity against Homo sapiens (human) CAKI-1 cells after 48 hr by SRB assay; settings: CAKI-1, 48 h; for CC50: read-out: LC50 (the source's name)
[6] = test system: NCI-H23; assay: Anticancer activity against Homo sapiens (human) NCI-H23 cells after 48 hr by SRB assay; settings: NCI-H23, 48 h; for CC50: read-out: LC50 (the source's name)
[7] = test system: HCT-15; assay: Anticancer activity against Homo sapiens (human) HCT15 cells after 48 hr by SRB assay; settings: HCT-15, 48 h; for CC50: read-out: LC50 (the source's name)
[8] = test system: M14; assay: Anticancer activity against Homo sapiens (human) M14 cells after 48 hr by SRB assay; settings: M14, 48 h
[9] = test system: LOX IMVI; assay: Anticancer activity against Homo sapiens (human) LOXIMVI cells after 48 hr by SRB assay; settings: for CC50: read-out: LC50 (the source's name)
[10] = test system: Malme-3M; assay: Growth inhibition of Homo sapiens (human) MALME-3M cells at 10 uM after 48 hr by SRB assay; settings: read-out: GI
[11] = test system: Malme-3M; assay: Anticancer activity against Homo sapiens (human) MALME-3M cells after 48 hr by SRB assay; settings: for CC50: read-out: LC50 (the source's name)
[12] = test system: HCT-116; assay: Growth inhibition of Homo sapiens (human) HCT116 cells at 10 uM after 48 hr by SRB assay; settings: HCT-116, 48 h, read-out: GI
[13] = test system: PC-3; assay: Anticancer activity against Homo sapiens (human) PC3 cells after 48 hr by SRB assay; settings: PC-3, 48 h; for CC50: read-out: LC50 (the source's name)
[14] = test system: HOP-62; assay: Anticancer activity against Homo sapiens (human) HOP62 cells after 48 hr by SRB assay; settings: HOP-62, 48 h; for CC50: read-out: LC50 (the source's name)
[15] = test system: HOP-62; assay: Growth inhibition of Homo sapiens (human) HOP62 cells at 10 uM after 48 hr by SRB assay; settings: HOP-62, 48 h, read-out: GI
[16] = test system: Hs-578T; assay: Growth inhibition of Homo sapiens (human) Hs 578T cells at 10 uM after 48 hr by SRB assay; settings: read-out: GI
[17] = test system: SW-620; assay: Anticancer activity against Homo sapiens (human) SW620 cells after 48 hr by SRB assay; settings: SW-620, 48 h; for CC50: read-out: LC50 (the source's name)
[18] = test system: SR; assay: Anticancer activity against Homo sapiens (human) SR cells after 48 hr by SRB assay
[19] = test system: U-251; assay: Growth inhibition of Homo sapiens (human) U251 cells at 10 uM after 48 hr by SRB assay; settings: U-251, 48 h, read-out: GI
[20] = test system: NCI-H322M; assay: Anticancer activity against Homo sapiens (human) NCI-H322M cells after 48 hr by SRB assay; settings: for CC50: read-out: LC50 (the source's name)
[21] = test system: 786-0; assay: Anticancer activity against Homo sapiens (human) 786-0 cells after 48 hr by SRB assay; settings: 786-0, 48 h; for CC50: read-out: LC50 (the source's name)
[22] = test system: SK-MEL-5; assay: Anticancer activity against Homo sapiens (human) SK-MEL-5 cells after 48 hr by SRB assay; settings: SK-MEL-5, 48 h
[23] = test system: HCC 2998; assay: Anticancer activity against Homo sapiens (human) HCC2998 cells after 48 hr by SRB assay; settings: HCC 2998, 48 h; for CC50: read-out: LC50 (the source's name)
[24] = test system: SK-OV-3; assay: Growth inhibition of Homo sapiens (human) SKOV3 cells at 10 uM after 48 hr by SRB assay; settings: SK-OV-3, 48 h, read-out: GI
[25] = test system: UACC-62; assay: Anticancer activity against Homo sapiens (human) UACC62 cells after 48 hr by SRB assay; settings: UACC-62, 48 h
[26] = test system: HT-29; assay: Anticancer activity against Homo sapiens (human) HT-29 cells after 48 hr by SRB assay; settings: HT-29, 48 h; for CC50: read-out: LC50 (the source's name)
[27] = test system: LOX IMVI; assay: Growth inhibition of Homo sapiens (human) LOXIMVI cells at 10 uM after 48 hr by SRB assay; settings: read-out: GI
[28] = test system: SK-MEL-28; assay: Anticancer activity against Homo sapiens (human) SK-MEL-28 cells after 48 hr by SRB assay; settings: SK-MEL-28, 48 h
[29] = test system: NCI-H23; assay: Growth inhibition of Homo sapiens (human) NCI-H23 cells at 10 uM after 48 hr by SRB assay; settings: NCI-H23, 48 h, read-out: GI
[30] = test system: HCT-15; assay: Growth inhibition of Homo sapiens (human) HCT15 cells at 10 uM after 48 hr by SRB assay; settings: HCT-15, 48 h, read-out: GI
[31] = test system: K562; assay: Growth inhibition of Homo sapiens (human) K562 cells at 10 uM after 48 hr by SRB assay; settings: K562, 48 h, read-out: GI
[32] = test system: HL-60(TB); assay: Growth inhibition of Homo sapiens (human) HL-60(TB) cells at 10 uM after 48 hr by SRB assay; settings: HL-60, 48 h, read-out: GI
[33] = test system: MOLT-4; assay: Growth inhibition of Homo sapiens (human) MOLT4 cells at 10 uM after 48 hr by SRB assay; settings: MOLT-4, 48 h, read-out: GI
[34] = test system: HOP-92; assay: Anticancer activity against Homo sapiens (human) HOP92 cells after 48 hr by SRB assay; settings: HOP-92, 48 h
[35] = read-out: LC50 (the source's name)

SMILES: COc1ccc(OC)c(/C=C/c2nnc(Nc3ccc(Cl)cc3)o2)c1
- inhibition of growth at 10 µM [1]: 33.3%
- GI50 [2]: 21.3 µM
- LC50 (50% lethal concentration) [2]: > 100 µM
- TGI [2]: > 100 µM
- GI50 [3]: 3.13 µM
- LC50 (50% lethal concentration) [3]: 78 µM
- TGI [3]: 12.6 µM
- inhibition of growth at 10 µM [4]: 60.9%
- GI50 [5]: 6.02 µM
- TGI [5]: > 100 µM
- CC50 [5]: > 100 µM
- GI50 [6]: 21.7 µM
- TGI [6]: > 100 µM
- CC50 [6]: > 100 µM
- GI50 [7]: 34.1 µM
- TGI [7]: > 100 µM
- CC50 [7]: > 100 µM
- GI50 [8]: 20.7 µM
- LC50 [8]: > 100 µM
- TGI [8]: > 100 µM
- GI50 [9]: 7.91 µM
- TGI [9]: > 100 µM
- CC50 [9]: > 100 µM
- inhibition of growth at 10 µM [10]: 58.5%
- GI50 [11]: 9.87 µM
- TGI [11]: 52.4 µM
- CC50 [11]: > 100 µM
- inhibition of growth at 10 µM [12]: 78.1%
- GI50 [13]: 13.3 µM
- TGI [13]: 76 µM
- CC50 [13]: > 100 µM
- GI50 [14]: 2.71 µM
- TGI [14]: 7.68 µM
- CC50 [14]: 38.9 µM
- inhibition of growth at 10 µM [15]: 64.7%
- inhibition of growth at 10 µM [16]: 93.1%
- GI50 [17]: 18.3 µM
- TGI [17]: > 100 µM
- CC50 [17]: > 100 µM
- GI50 [18]: 48.2 µM
- TGI [18]: > 100 µM
- CC50 [18, 35]: > 100 µM
- inhibition of growth at 10 µM [19]: 58.2%
- GI50 [20]: 30.5 µM
- TGI [20]: > 100 µM
- CC50 [20]: > 100 µM
- GI50 [21]: 2.67 µM
- TGI [21]: 7.6 µM
- CC50 [21]: 55.3 µM
- GI50 [22]: 7.17 µM
- LC50 [22]: > 100 µM
- TGI [22]: > 100 µM
- GI50 [23]: > 100 µM
- TGI [23]: > 100 µM
- CC50 [23]: > 100 µM
- inhibition of growth at 10 µM [24]: 67.1%
- GI50 [25]: 16.2 µM
- LC50 [25]: > 100 µM
- TGI [25]: > 100 µM
- GI50 [26]: 9.44 µM
- TGI [26]: 28.3 µM
- CC50 [26]: 82.1 µM
- inhibition of growth at 10 µM [27]: 32.3%
- GI50 [28]: 26.8 µM
- LC50 (concentration killing 50% of cells) [28]: > 100 µM
- TGI [28]: > 100 µM

SMILES: COc1ccc(OC)c(/C=C/C(=O)N/N=C/c2ccccc2)c1
- inhibition of growth at 10 µM [1]: 45.2%
- GI50 [2]: 5.76 µM
- LC50 (50% lethal concentration) [2]: > 100 µM
- TGI [2]: 33.6 µM
- inhibition of growth at 10 µM [29]: 34.9%
- GI50 [3]: 5.9 µM
- LC50 (50% lethal concentration) [3]: > 100 µM
- TGI [3]: 85.5 µM
- inhibition of growth at 10 µM [4]: 43.3%
- GI50 [5]: 0.443 µM
- TGI [5]: 6.66 µM
- CC50 [5]: > 100 µM
- inhibition of growth at 10 µM [30]: 58%
- GI50 [6]: 5.4 µM
- TGI [6]: 87 µM
- CC50 [6]: > 100 µM
- GI50 [7]: 3.62 µM
- TGI [7]: > 100 µM
- CC50 [7]: > 100 µM
- GI50 [8]: 2.16 µM
- LC50 [8]: > 100 µM
- TGI [8]: 6.77 µM
- GI50 [9]: 4.11 µM
- TGI [9]: > 100 µM
- CC50 [9]: > 100 µM
- inhibition of growth at 10 µM [10]: 41%
- GI50 [11]: 2.12 µM
- TGI [11]: > 100 µM
- CC50 [11]: > 100 µM
- inhibition of growth at 10 µM [31]: 78.8%
- inhibition of growth at 10 µM [12]: 85.8%
- inhibition of growth at 10 µM [32]: 53.6%
- inhibition of growth at 10 µM [33]: 63.5%
- GI50 [13]: 5.86 µM
- TGI [13]: 52.1 µM
- CC50 [13]: > 100 µM
- GI50 [14]: 4.95 µM
- TGI [14]: > 100 µM
- CC50 [14]: > 100 µM
- GI50 [34]: 1.56 µM
- TGI [34]: 13.3 µM
- CC50 [34, 35]: > 100 µM
- inhibition of growth at 10 µM [15]: 32.7%
- inhibition of growth at 10 µM [16]: 33.5%
- GI50 [17]: 1.5 µM
- TGI [17]: 6.23 µM
- CC50 [17]: > 100 µM
- inhibition of growth at 10 µM [19]: 56.5%
- GI50 [20]: 5.22 µM
- TGI [20]: > 100 µM
- CC50 [20]: > 100 µM
- GI50 [21]: 7 µM
- TGI [21]: 72.5 µM
- CC50 [21]: > 100 µM
- GI50 [22]: 2.94 µM
- LC50 [22]: > 100 µM
- TGI [22]: 14.6 µM
- GI50 [23]: 2.35 µM
- TGI [23]: 21 µM
- CC50 [23]: 94.5 µM
- inhibition of growth at 10 µM [24]: 40%
- GI50 [25]: 3.55 µM
- LC50 [25]: > 100 µM
- TGI [25]: 75.8 µM
- GI50 [26]: 2.1 µM
- TGI [26]: > 100 µM
- CC50 [26]: > 100 µM
- inhibition of growth at 10 µM [27]: 57.9%
- GI50 [28]: 8.89 µM
- LC50 (concentration killing 50% of cells) [28]: > 100 µM
- TGI [28]: > 100 µM
